In ChEMBL document CHEMBL4184182, “Studies on interactions of carbazole derivatives with DNA, cell image, and cytotoxicity” (Bioorg Med Chem, 2018):
Activity calls are given as the source filed them. The calls are words filed in the database; no cut-off is given here.

Assays:
Quadruplex DNA [1] = experiment: Binding affinity to human telomeric G-quadruplex DNA assessed as emission maximum at 5 uM after 5 mins in presence of potassium ion by fluorescence titration method (reference value: 584 nanometer); format: nucleic-acid assay
Calf thymus DNA [2] = experiment: Binding affinity to calf thymus DNA after 5 mins by UV-Visible absorbance titration method; format: nucleic-acid assay; conditions: Bos taurus
[3] = Selectivity ratio of DC50 for 26-mer duplex DNA (unknown origin) to DC50 for c-Kit G-quadruplex DNA (unknown origin)
Quadruplex DNA [4] = experiment: Binding affinity to human telomeric G-quadruplex DNA assessed as compound fluorescence life time at 5 uM after 5 mins in presence of sodium ion by fluorescence titration method (reference value: 0.192 nanoseconds); format: nucleic-acid assay
Quadruplex DNA [5] = experiment: Binding affinity to c-Kit G-quadruplex DNA (unknown origin) assessed as red shift at 10 uM after 5 mins by UV-Visible absorbance titration method; format: nucleic-acid assay
Quadruplex DNA [6] = experiment: Displacement of thiazole orange from human telomeric G-quadruplex DNA after 5 mins in presence of sodium ion by fluorescence spectral analysis; format: nucleic-acid assay
Quadruplex DNA [7] = experiment: Displacement of thiazole orange from c-Myc G-quadruplex DNA (unknown origin) after 5 mins by fluorescence spectral analysis; format: nucleic-acid assay
Quadruplex DNA [8] = experiment: Binding affinity to c-Myc G-quadruplex DNA (unknown origin) assessed as stoichiometric ratio of compound to G-quadruplex DNA after 5 mins by Job plot analysis; format: nucleic-acid assay
Quadruplex DNA [9] = experiment: Binding affinity to human telomeric G-quadruplex DNA after 5 mins in presence of potassium ion by UV-Visible absorbance titration method; format: nucleic-acid assay
Quadruplex DNA [10] = experiment: Induction of conformational changes in human telomeric G-quadruplex DNA at 15 uM after 5 mins in presence of potassium ion by CD spectral analysis; format: nucleic-acid assay
[11] = Selectivity ratio of DC50 for 26-mer duplex DNA (unknown origin) to DC50 for c-Myc G-quadruplex DNA (unknown origin)
Quadruplex DNA [12] = experiment: Displacement of thiazole orange from Bcl2 G-quadruplex DNA (unknown origin) after 5 mins by fluorescence spectral analysis; format: nucleic-acid assay
Quadruplex DNA [13] = experiment: Binding affinity to human telomeric G-quadruplex DNA assessed as absorption maximum at 5 uM after 5 mins in presence of sodium ion by fluorescence titration method (reference value: 453 nanometer); format: nucleic-acid assay
[14] = Selectivity ratio of Kb for c-Kit G-quadruplex DNA (unknown origin) to Kb for calf thymus DNA
[15] = Selectivity ratio of Kb for human telomeric G-quadruplex DNA in presence of sodium ion to Kb for calf thymus DNA
Quadruplex DNA [16] = experiment: Displacement of thiazole orange from human telomeric G-quadruplex DNA after 5 mins in presence of potassium ion by fluorescence spectral analysis; format: nucleic-acid assay
Quadruplex DNA [17] = experiment: Binding affinity to Bcl2 G-quadruplex DNA (unknown origin) assessed as stoichiometric ratio of compound to G-quadruplex DNA after 5 mins by Job plot analysis; format: nucleic-acid assay
Quadruplex DNA [18] = experiment: Induction of conformational changes in c-Kit G-quadruplex DNA (unknown origin) at 15 uM after 5 mins by CD spectral analysis; format: nucleic-acid assay
dsDNA [19] = experiment: Binding affinity to 26-mer duplex DNA (unknown origin) after 5 mins by UV-Visible absorbance titration method; format: nucleic-acid assay
Quadruplex DNA [20] = experiment: Induction of conformational changes in Bcl2 G-quadruplex DNA (unknown origin) at 15 uM after 5 mins by CD spectral analysis; format: nucleic-acid assay
Quadruplex DNA [21] = experiment: Binding affinity to human telomeric G-quadruplex DNA after 5 mins in presence of sodium ion by UV-Visible absorbance titration method; format: nucleic-acid assay
dsDNA [22] = experiment: Displacement of thiazole orange from 26-mer duplex DNA (unknown origin) after 5 mins by fluorescence spectral analysis; format: nucleic-acid assay
[23] = Selectivity ratio of Kb for Bcl2 G-quadruplex DNA (unknown origin) to Kb for calf thymus DNA
dsDNA [24] = experiment: Binding affinity to 26-mer duplex DNA (unknown origin) assessed as red shift at 10 uM after 5 mins by UV-Visible absorbance titration method; format: nucleic-acid assay
Quadruplex DNA [25] = experiment: Induction of conformational changes in human telomeric G-quadruplex DNA at 15 uM after 5 mins in presence of sodium ion by CD spectral analysis; format: nucleic-acid assay
Quadruplex DNA [26] = experiment: Displacement of thiazole orange from c-Kit G-quadruplex DNA (unknown origin) after 5 mins by fluorescence spectral analysis; format: nucleic-acid assay
HepG2 = experiment: Antiproliferative activity against human HepG2 cells after 72 hrs by MTT assay; format: functional, cell-based; conditions: for IC50: HepG2, 72 h
[27] = Selectivity ratio of DC50 for 26-mer duplex DNA (unknown origin) to DC50 for Bcl2 G-quadruplex DNA (unknown origin)
Quadruplex DNA [28] = experiment: Binding affinity to c-Myc G-quadruplex DNA (unknown origin) after 5 mins by UV-Visible absorbance titration method; format: nucleic-acid assay
Quadruplex DNA [29] = experiment: Binding affinity to Bcl2 G-quadruplex DNA (unknown origin) after 5 mins by UV-Visible absorbance titration method; format: nucleic-acid assay
Quadruplex DNA [30] = experiment: Binding affinity to c-Kit G-quadruplex DNA (unknown origin) assessed as stoichiometric ratio of compound to G-quadruplex DNA after 5 mins by Job plot analysis; format: nucleic-acid assay
Quadruplex DNA [31] = experiment: Binding affinity to c-Kit G-quadruplex DNA (unknown origin) after 5 mins by UV-Visible absorbance titration method; format: nucleic-acid assay
Quadruplex DNA [32] = experiment: Induction of conformational changes in c-Myc G-quadruplex DNA (unknown origin) at 15 uM after 5 mins by CD spectral analysis; format: nucleic-acid assay
[33] = Selectivity ratio of DC50 for 26-mer duplex DNA (unknown origin) to DC50 for human telomeric G-quadruplex DNA in presence of potassium ion
Quadruplex DNA [34] = experiment: Binding affinity to human telomeric G-quadruplex DNA assessed as stoichiometric ratio of compound to G-quadruplex DNA after 5 mins in presence of potassium ion by Job plot analysis; format: nucleic-acid assay
[35] = Selectivity ratio of Kb for human telomeric G-quadruplex DNA in presence of potassium ion to Kb for calf thymus DNA
[36] = Selectivity ratio of Kb for c-Myc G-quadruplex DNA (unknown origin) to Kb for calf thymus DNA
Quadruplex DNA [37] = experiment: Binding affinity to Bcl2 G-quadruplex DNA (unknown origin) assessed as absorption maximum at 5 uM after 5 mins by fluorescence titration method (reference value: 453 nanometer); format: nucleic-acid assay
Quadruplex DNA [38] = experiment: Binding affinity to human telomeric G-quadruplex DNA assessed as stoichiometric ratio of compound to G-quadruplex DNA after 5 mins in presence of sodium ion by Job plot analysis; format: nucleic-acid assay
[39] = Selectivity ratio of DC50 for 26-mer duplex DNA (unknown origin) to DC50 for human telomeric G-quadruplex DNA in presence of sodium ion
[40] = Drug uptake in human HepG2 cell nucleus at 10 uM after 2.5 hrs by confocal microscopic method; format: ADME, subcellular; conditions: hepg2, 2.5 h
Calf thymus DNA [41] = experiment: Binding affinity to calf thymus DNA assessed as hyperchromicity at 15 uM after 5 mins by UV-Visible absorbance titration method; format: nucleic-acid assay; conditions: Bos taurus
Quadruplex DNA [42] = experiment: Binding affinity to c-Myc G-quadruplex DNA (unknown origin) assessed as compound fluorescence life time at 5 uM after 5 mins by fluorescence titration method (reference value: 3.626 nanoseconds); format: nucleic-acid assay
Quadruplex DNA [43] = experiment: Binding affinity to human telomeric G-quadruplex DNA assessed as enhanced fluorescence ratio at 5 uM after 5 mins in presence of sodium ion by fluorescence titration assay relative to control; format: nucleic-acid assay

Kb (Calf thymus DNA [2]) [×10⁴ /M]	Selectivity ratio [3]	DC50 (Quadruplex DNA [6]) [µM]	DC50 (Quadruplex DNA [7]) [µM]	Ratio (Quadruplex DNA [8])	Kb (Quadruplex DNA [9]) [×10⁴ /M]	Activity (Quadruplex DNA [10])	Selectivity ratio [11]	DC50 (Quadruplex DNA [12]) [µM]	Selectivity ratio [14]	Selectivity ratio [15]	DC50 (Quadruplex DNA [16]) [µM]	Ratio (Quadruplex DNA [17])	Activity (Quadruplex DNA [18])	Kb (dsDNA [19]) [×10⁴ /M]	Activity (Quadruplex DNA [20])	Kb (Quadruplex DNA [21]) [×10⁴ /M]	DC50 (dsDNA [22]) [µM]	Selectivity ratio [23]	Activity (Quadruplex DNA [25])	SMILES	other results
1.32	2.02	6.08	0.93	1.9	18.3	inactive	4.67	0.84	18.1	6	1.81	1.5	inactive	3.97	inactive	7.86	4.34	24.2	inactive	CCn1c2ccccc2c2cc(/C=C/c3sc4ccccc4[n+]3CC)ccc21.[I-]	Activity (Quadruplex DNA [1]): 579 nm; Time (Quadruplex DNA [4]): 2.15 nanoseconds; Activity (Quadruplex DNA [5]): 40 nm; Activity (Quadruplex DNA [13]): 477 nm; Activity (dsDNA [24]): 17 nm; DC50 (Quadruplex DNA [26]): 2.15 µM; Activity (HepG2): Dose-dependent effect; IC50 (HepG2): 2.7 µM; Selectivity ratio [27]: 5.17; Kb (Quadruplex DNA [28]): 54.9 ×10⁴ /M; Kb (Quadruplex DNA [29]): 32 ×10⁴ /M; Ratio (Quadruplex DNA [30]): 1.9; Kb (Quadruplex DNA [31]): 23.9 ×10⁴ /M; Activity (Quadruplex DNA [32]): inactive; Selectivity ratio [33]: 2.4; Ratio (Quadruplex DNA [34]): 2.2; Selectivity ratio [35]: 13.9; Selectivity ratio [36]: 41.6; Activity (Quadruplex DNA [37]): 500 nm; Ratio (Quadruplex DNA [38]): 1.9
1	2.17	9.85	5.15	2.1	11.9	inactive	2.55	9.25	6.7	4.3	6.64	1.6	inactive	2.28	inactive	6.95	13.1	6.2	inactive	CCn1c2ccccc2c2cc(/C=C(\C#N)c3ccc[n+](C)c3)ccc21.[I-]	Selectivity ratio [39]: 1.33; Drug uptake [40]: Not Active; Activity (Calf thymus DNA [41]): 39.4%; DC50 (Quadruplex DNA [26]): 6.03 µM; Activity (HepG2): Dose-dependent effect; IC50 (HepG2): 9.8 µM; Selectivity ratio [27]: 1.42; Kb (Quadruplex DNA [28]): 19.2 ×10⁴ /M; Kb (Quadruplex DNA [29]): 9.99 ×10⁴ /M; Time (Quadruplex DNA [42]): 4.12 nanoseconds; Ratio (Quadruplex DNA [30]): 2; Kb (Quadruplex DNA [31]): 10.7 ×10⁴ /M; Activity (Quadruplex DNA [32]): inactive; Ratio (Quadruplex DNA [43]): > 6; Selectivity ratio [33]: 1.98; Ratio (Quadruplex DNA [34]): 2.2; Selectivity ratio [35]: 7.4; Selectivity ratio [36]: 12; Ratio (Quadruplex DNA [38]): 1.9
